Laboratory results as given in the CheMixHub viscosity set.

Assay: xn = mol fraction of the nth substance listed

ClC(Cl)(Cl)Cl + CCCCCO
viscosity [mPa·s], 101 kPa
Conditions | x2 = 0.0207 | x2 = 0.0826 | x2 = 0.3114 | x2 = 0.4575 | x2 = 0.5771 | x2 = 0.8017
298.15 K | 0.912 | 0.971 | 1.306 | 1.62 | 1.884 | 2.761
308.15 K | 0.798 | 0.84 | 1.03 | 1.241 | 1.488 | 2.103
318.15 K | 0.708 | 0.741 | 0.886 | 1.037 | 1.199 | 1.647

CCOC(=O)c1ccccc1O + CCCCCOC(C)=O
Conditions | viscosity [mPa·s]
298.15 K, 101 kPa, x2 = 0.5 | 1.045

COc1ccc(C)cc1 + CCCCCOC(C)=O
Conditions | viscosity [mPa·s]
298.15 K, 101 kPa, x1 = 0.5 | 0.8602

COc1cccc(C)c1 + CCCCCOC(C)=O
Conditions | viscosity [mPa·s]
298.15 K, 101 kPa, x1 = 0.5 | 0.8784

CCCC(C)=O + CCCCN
303.15 K, 101.33 kPa
Conditions | viscosity [mPa·s]
x2 = 0.1 | 0.608
x2 = 0.1974 | 0.752
x2 = 0.3754 | 0.936
x2 = 0.5189 | 1.023
x2 = 0.6418 | 1.061
x2 = 0.7158 | 0.949
x2 = 0.8252 | 0.825
x2 = 0.8978 | 0.709

CCN(CC)CC + CCCCN
viscosity [mPa·s], 101.33 kPa
Conditions | x1 = 0.1038 | x1 = 0.2009 | x1 = 0.4065 | x1 = 0.5021 | x1 = 0.5996 | x1 = 0.801 | x1 = 0.8898
303.15 K | 0.4186 | 0.4019 | 0.3761 | 0.3681 | 0.3611 | 0.357 | 0.3569
313.15 K | 0.3692 | 0.3555 | 0.3345 | 0.329 | 0.3244 | 0.3216 | 0.3228

CCCC(C)=O + CCCCN(CCCC)CCCC
viscosity [mPa·s], 101 kPa
Conditions | 298.15 K | 303.15 K | 308.15 K
x2 = 0.0499 | 0.49 | 0.465 | 0.436
x2 = 0.1 | 0.521 | 0.49 | 0.462
x2 = 0.1499 | 0.554 | 0.521 | 0.491
x2 = 0.2 | 0.588 | 0.551 | 0.519
x2 = 0.2498 | 0.624 | 0.584 | 0.547
x2 = 0.3 | 0.66 | 0.614 | 0.575
x2 = 0.3999 | 0.735 | 0.681 | 0.636
x2 = 0.4997 | 0.81 | 0.75 | 0.698
x2 = 0.5997 | 0.889 | 0.821 | 0.764
x2 = 0.7002 | 0.974 | 0.898 | 0.832
x2 = 0.7997 | 1.065 | 0.977 | 0.902
x2 = 0.8463 | 1.108 | 1.02 | 0.936
x2 = 0.899 | 1.165 | 1.064 | 0.979
x2 = 0.956 | 1.227 | 1.118 | 1.025

CCN(CC)CC + CCCCO
303.15 K, 101 kPa
Conditions | viscosity [mPa·s]
x1 = 0.01087 | 2.223
x1 = 0.02221 | 2.193
x1 = 0.0326 | 2.162
x1 = 0.04176 | 2.133
x1 = 0.05247 | 2.098
x1 = 0.06249 | 2.076
x1 = 0.07262 | 2.052
x1 = 0.08419 | 2.019
x1 = 0.09512 | 1.991

ClC(Cl)(Cl)Cl + CCCCO
Conditions | viscosity [mPa·s]
298.15 K, 101 kPa, x2 = 0.0326 | 0.903
298.15 K, 101 kPa, x2 = 0.0846 | 0.92
298.15 K, 101 kPa, x2 = 0.1 | 0.918
298.15 K, 101 kPa, x2 = 0.19 | 0.975
298.15 K, 101 kPa, x2 = 0.2668 | 1.058
298.15 K, 101 kPa, x2 = 0.27 | 1.046
298.15 K, 101 kPa, x2 = 0.34 | 1.135
298.15 K, 101 kPa, x2 = 0.425 | 1.293
298.15 K, 101 kPa, x2 = 0.4916 | 1.42
298.15 K, 101 kPa, x2 = 0.58 | 1.56
298.15 K, 101 kPa, x2 = 0.629 | 1.778
298.15 K, 101 kPa, x2 = 0.67 | 1.794
298.15 K, 101 kPa, x2 = 0.6978 | 1.88
298.15 K, 101 kPa, x2 = 0.76 | 1.979
298.15 K, 101 kPa, x2 = 0.7789 | 2.078
298.15 K, 101 kPa, x2 = 0.836 | 2.291
298.15 K, 101 kPa, x2 = 0.89 | 2.325
298.15 K, 101.32 kPa, x2 = 0.09917 | 0.919
298.15 K, 101.32 kPa, x2 = 0.1956 | 0.972
298.15 K, 101.32 kPa, x2 = 0.3011 | 1.074
298.15 K, 101.32 kPa, x2 = 0.3746 | 1.163
298.15 K, 101.32 kPa, x2 = 0.5434 | 1.464
298.15 K, 101.32 kPa, x2 = 0.5847 | 1.552
298.15 K, 101.32 kPa, x2 = 0.687 | 1.806
298.15 K, 101.32 kPa, x2 = 0.7888 | 2.065
298.15 K, 101.32 kPa, x2 = 0.8923 | 2.329
303.15 K, 101 kPa, x2 = 0.0559 | 0.8424
303.15 K, 101 kPa, x2 = 0.057 | 0.8423
303.15 K, 101 kPa, x2 = 0.1084 | 0.8543
303.15 K, 101 kPa, x2 = 0.1137 | 0.856
303.15 K, 101 kPa, x2 = 0.1851 | 0.8882
303.15 K, 101 kPa, x2 = 0.1887 | 0.8907
303.15 K, 101 kPa, x2 = 0.2871 | 0.9679
303.15 K, 101 kPa, x2 = 0.3823 | 1.076
303.15 K, 101 kPa, x2 = 0.4772 | 1.215
303.15 K, 101 kPa, x2 = 0.5086 | 1.268
303.15 K, 101 kPa, x2 = 0.6468 | 1.527
303.15 K, 101 kPa, x2 = 0.6792 | 1.593
303.15 K, 101 kPa, x2 = 0.7591 | 1.764
303.15 K, 101 kPa, x2 = 0.8416 | 1.943
303.15 K, 101 kPa, x2 = 0.893 | 2.054
303.15 K, 101 kPa, x2 = 0.9516 | 2.176
303.15 K, 101 kPa, x2 = 0.9563 | 2.186
303.15 K, 101.3 kPa, x1 = 0.7915 | 1.005
308.15 K, 101 kPa, x2 = 0.0846 | 0.801
308.15 K, 101 kPa, x2 = 0.2668 | 0.902
308.15 K, 101 kPa, x2 = 0.629 | 1.372
308.15 K, 101 kPa, x2 = 0.6978 | 1.487
308.15 K, 101 kPa, x2 = 0.7789 | 1.647
308.15 K, 101 kPa, x2 = 0.836 | 1.76
318.15 K, 101 kPa, x2 = 0.0326 | 0.684
318.15 K, 101 kPa, x2 = 0.0846 | 0.692
318.15 K, 101 kPa, x2 = 0.2668 | 0.773
318.15 K, 101 kPa, x2 = 0.425 | 0.883
318.15 K, 101 kPa, x2 = 0.4916 | 0.95
318.15 K, 101 kPa, x2 = 0.629 | 1.116
318.15 K, 101 kPa, x2 = 0.6978 | 1.189
318.15 K, 101 kPa, x2 = 0.7789 | 1.313
318.15 K, 101 kPa, x2 = 0.836 | 1.416

CCCOC(C)=O + CCCCOC(C)=O
viscosity [mPa·s], 101 kPa
Conditions | x1 = 0.2 | x1 = 0.4 | x1 = 0.6 | x1 = 0.8
293.15 K | 0.697 | 0.67 | 0.644 | 0.618
313.15 K | 0.538 | 0.519 | 0.5 | 0.481

ClC(Cl)(Cl)Cl + CCCCOC(C)=O
101.33 kPa
Conditions | viscosity [mPa·s]
303.15 K, x1 = 0.1942 | 0.664
303.15 K, x1 = 0.3145 | 0.685
303.15 K, x1 = 0.4207 | 0.702
303.15 K, x1 = 0.5252 | 0.72
303.15 K, x1 = 0.5754 | 0.732
303.15 K, x1 = 0.7049 | 0.759
303.15 K, x1 = 0.7537 | 0.774
303.15 K, x1 = 0.8196 | 0.788
303.15 K, x1 = 0.8765 | 0.803
303.15 K, x1 = 0.9415 | 0.823
313.15 K, x1 = 0.2041 | 0.587
313.15 K, x1 = 0.4028 | 0.619
313.15 K, x1 = 0.5068 | 0.634
313.15 K, x1 = 0.604 | 0.651
313.15 K, x1 = 0.8058 | 0.695

CCN(CC)CC + CCCCOCCO
viscosity [mPa·s], 100 kPa
Conditions | 298.15 K | 303.15 K | 308.15 K
x2 = 0.0506 | 0.431 | 0.407 | 0.383
x2 = 0.1002 | 0.51 | 0.474 | 0.447
x2 = 0.1499 | 0.598 | 0.553 | 0.518
x2 = 0.2 | 0.689 | 0.632 | 0.594
x2 = 0.3001 | 0.875 | 0.802 | 0.75
x2 = 0.3999 | 1.097 | 0.99 | 0.922
x2 = 0.5001 | 1.35 | 1.212 | 1.122
x2 = 0.6 | 1.632 | 1.457 | 1.342
x2 = 0.6996 | 1.946 | 1.714 | 1.576
x2 = 0.7994 | 2.254 | 1.979 | 1.809
x2 = 0.8995 | 2.578 | 2.264 | 2.058
x2 = 0.9498 | 2.724 | 2.392 | 2.174

ClC(Cl)(Cl)Cl + CCCCOCCO
298.15 K, 101.3 kPa
Conditions | viscosity [mPa·s]
x2 = 0.0054 | 0.913
x2 = 0.0106 | 0.919
x2 = 0.0262 | 0.918
x2 = 0.0778 | 0.968
x2 = 0.1296 | 1.035
x2 = 0.1914 | 1.125
x2 = 0.2889 | 1.283
x2 = 0.3826 | 1.47
x2 = 0.4809 | 1.687
x2 = 0.5388 | 1.81
x2 = 0.5933 | 1.935
x2 = 0.6963 | 2.162
x2 = 0.7923 | 2.385
x2 = 0.8841 | 2.589
x2 = 0.9631 | 2.759
